Laboratory results as given in patent US20220218809A1, “IDO ACTIVITY AS A MARKER OF TUMOR IMMUNE ESCAPE AND IDO INHIBITORS AS A MEANS OF ENHANCING T CELLS RESPONSE TO ANTIGEN SPECIFIC VACCINE” (Wisconsin Alumni Research Foundation, priority 2018, published 2022).

Columns and labels:
IDO activity = assay: Serum kynurenine-to-tryptophan (kyn:trp) ratio as measure of IDO activity in treated mCRPC patients; type: in vivo, human; conditions: patients with mCRPC
Method: Tryptophan and kynurenine concentrations were measured directly in serum samples using a clinically validated LC/MS method. All analysis was performed by Worldwide Clinical Trials (Morrisville, N.C.) by personnel blinded to the sample source.
Patients with prostate cancer treated with an anti-tumor vaccine and/or PD-1 develop increased IDO activity and expression. […] Because IDO is also an IFNγ-regulated gene, we questioned whether prostate cancer immunotherapy similarly elicited increases in IDO expression. We have recently reported the results of a trial in which patients with mCRPC were treated with a DNA vaccine encoding PAP alone for 12 weeks, followed by pembrolizumab over the subsequent 12 weeks, or were treated with both agents for 12 weeks (17). Sera was assessed for kynurenine and tryptophan concentrations at baseline and at 12 and 24 weeks, effectively permitting an analysis of changes in IDO activity following treatment with vaccine alone, pembrolizumab alone, or the combination. […] IFNγ concentration was also directly evaluated in sera samples.

T-cell activation = conditions: literature (ref 22); cited from earlier work
[1] = tested on: PAP-specific IFNγ-secreting T cells (PBMC); assay: IFNγ ELISPOT of patient PBMC stimulated with PAP antigen; type: cell-based, human; conditions: PBMC from 22 patients after vaccine and pembrolizumab; IDO enzyme 5 ug/mL or 1-MDT 2 mM; 48 hours; changes not statistically significant
Method: ELISPOT for measuring IFNγ release was performed as previously described (21). For these analyses, cryopreserved PBMC were thawed, and cultured with PAP protein antigen (Fitzgerald Industries, Acton, Mass.), media alone, or phytohemaglutinin (PHA). Stimulations were also conducted in the presence of IDO enzyme (5 ug/mL) or 1-MDT (2 mM). After 48 hours, plates were developed and spots enumerated using an automated ELISPOT reader (ImmunoSpot, CTL, Shaker Heights, Ohio).
IDO activity is associated with modest decrease in vaccine antigen-specific T-cell function.

## pembrolizumab
IDO activity; after 12 weeks of treatment
  median kyn:trp ratio post-treatment: 0.066
IDO activity; before the 12-week treatment period
  median kyn:trp ratio pre-treatment: 0.061

## Cn1cc(C[C@H](N)C(=O)O)c2ccccc21 [1-methyltryptophan]
T-cell activation
  effect on T-cell activation in vitro: enhance T-cell activation in vitro
[1]
  detection of PAP-specific IFNγ-secreting cells by ELISPOT: increased the detection of IFNγ-secreting PAP-specific cells

## IDO enzyme: indoleamine 2,3 dioxygenase enzyme added to the PBMC cultures
[1]
  detection of PAP-specific IFNγ-secreting cells by ELISPOT: tended to suppress
